# ChEMBL document CHEMBL3286153, “Evaluation of the antiviral efficacy of bis[1,2]dithiolo[1,4]thiazines and bis[1,2]dithiolopyrrole derivatives against the nucelocapsid protein of the Feline Immunodeficiency Virus (FIV) as a model for HIV infection” (Bioorg Med Chem Lett, 2014)
# Tests used:
# [1] = test system: Feline immunodeficiency virus; assay: Antiviral activity against Feline immunodeficiency virus infected in cat FL-4 cells assessed as viral RNA production by RT-qPCR; format: functional, organism-based
# [2] = Cytotoxicity against cat CRFK cells assessed as cell viability at 10 uM after 24 hrs by MTT assay; format: cell-based, Felis catus; settings: read-out: Activity
# [3] = Therapeutic index, ratio of CC50 for cat CRFK cells to EC50 for Feline immunodeficiency virus infected in cat FL-4 cells; format: cell-based; settings: for selectivity ratio: read-out: Ratio CC50/EC50; for Ratio CC50/EC50: crfk
# [4] = Cytotoxicity against cat CRFK cells assessed as cell viability after 7 days by MTT assay; format: cell-based, Felis catus; settings: for CC50 at 168 h: CRFK cells; for CC50: crfk, 168 h
# [5] = Feline immunodeficiency virus, FL-4, read-out: EC50
"EC50 [1, 5] [nM]",Compound,"viability at 24 h, 10 µM [2] [%]",selectivity ratio [3],CC50 at 168 h [4] [nM],EC50 ([1]; fl-4),Ratio CC50/EC50 [3],CC50 [4]
16.2,CCOC(=O)CCN1c2c(ssc2=O)Sc2ssc(=O)c21,76.8,3.5,56,,,
,CCOC(=O)CCn1c2c(=O)ssc2c2ssc(=O)c21,78.2,,,ND(toxic),ND(toxic),ND(toxic)
656,CCn1c2c(=S)ssc2c2ssc(=S)c21,> 100,30.6,20100,,,
345,CCN1c2c(ssc2=O)Sc2ssc(=S)c21,> 100,> 29,> 10000,,,
,CC(=O)OCCN1c2c(ssc2=O)Sc2ssc(=O)c21,39.2,,,ND(toxic),ND(toxic),ND(toxic)
,CCN1c2c(ssc2=O)Sc2ssc(=O)c21,40.2,,,ND(toxic),ND(toxic),ND(toxic)
642,CCOC(=O)CCN1c2c(ssc2=O)Sc2ssc(=S)c21,91.2,3.5,2270,,,
379,O=C(O)CCN1c2c(ssc2=S)Sc2ssc(=S)c21,97.2,4.5,1720,,,
< 1,CCN1c2c(ssc2=S)Sc2ssc(=S)c21,98.8,> 31,31,,,
9.98,Cc1nnc(C(=O)NC(C)(C)c2nc(C(=O)NCc3ccc(F)cc3)c(O)c(=O)n2C)o1 [RALTEGRAVIR],> 100,> 100000,> 100000,,,
5310,Cc1cn([C@H]2C[C@H](N=[N+]=[N-])[C@@H](CO)O2)c(=O)[nH]c1=O [ZIDOVUDINE],> 100,> 18.8,> 100000,,,
